These are literature values, as cited in PMC6270305 (Molecules, 2013).

Like-named read-outs stand apart in the source and are kept apart here.

Setting [1] is: human serum, peptide described in the preliminary communication.

Take `Cc1cc(C)c(C[C@@H]2NC(=O)[C@H](Cc3ccccc3)NC(=O)[C@H](CC(N)=O)NC(=O)[C@H](CCCCN)NC(=O)[C@@H](NC(=O)CNC(=O)[C@H](C)N)CSSC[C@@H](C(=O)O)NC(=O)[C@H](CO)NC(=O)[C@H]([C@@H](C)O)NC(=O)[C@H](Cc3ccccc3)NC(=O)[C@H]([C@@H](C)O)NC(=O)[C@H](CCCCN)NC(=O)[C@@H](Cc3c[nH]c4ccccc34)NC2=O)c(C)c1` [Peptide 5, [L-Msa7,D-Trp8]-SRIF]: the “t1/2 (human serum half-life)” value (human, serum) is reported as 25 h.
As for [L-Msa6,D-Trp8]-SRIF [Peptide 4], the “t1/2 (human serum half-life)” value under setting [1] is 26 h.
Turning to [L-Msa7]-SRIF [Peptide 2], the “t1/2 (human serum half-life)” value under setting [1] is on record as 5.2 h.
Take [L-Msa11,D-Trp8]-SRIF [Peptide 6]: the “t1/2 (human serum half-life)” value under setting [1] is 41 h.
